Laboratory results: patent US5753681A, “Treatment and prophylaxis of pancreatitis” (Sankyo Company, Limited, priority 1996, dated 1998)

Legend:
[1] = Suppression of the decrease in the pancreatic weight in a model of spontaneous chronic pancreatitis; format: in vivo, male WBN/Kob rats; settings: in feed: pioglitazone 0.05% (25 mg/kg/day), BRL-49653 0.005% (2.5), Compound A 0.005% (3.0); three months; normal 1152 ± 43, control 680 ± 26; ***p < 0.001 (pioglitazone, BRL-49653), **p < 0.01 (Compound A)
From the text: The test animals were male WBN/Kob rats, which are commonly used as models of spontaneous chronic pancreatitis and suffer pancreatic weight loss and dysfunction of the exocrine pancreatic tissue due to degeneration and necrosis of the pancreatic parenchyma and its replacement by connective tissue [Tsuchitani et al., Laboratory Animals, 19(3), 200-207, (1985)]. Each group of test animals contained 4 animals, and the animals were used for the experiment when they had reached 12 weeks old. The animals were fed with powdered feed F2 mixed with 0.2% of troglitazone for three months. This group is hereinafter referred to as "the treated group". The average dose of the compound during this period was 140 mg/kg/day. Meanwhile, another four rats (control group) were fed with the powdered feed F2 only. After the rats had been fed with the feeds for three months, the pancreas of each animal was totally enucleated and its weight was measured.
(§1) The procedure described in Example 2 was repeated, except that the test compound was pioglitazone ("the pioglitazone group"), BRL-49653 ("the BRL-49653 group"), or Compound A ("the Compound A group").

[2] = Histopathology of pancreatic tissue of Example 3: total cross-sectional area and cicatrized area; format: in vivo, male WBN/Kob rats; settings: doses of Example 3
Procedure: The measurement of the cicatrized area may also be carried out by conventional procedures. More specifically, male WBN/Kob rats are used as models of spontaneous chronic pancreatitis and are fed with a powdered feed admixed with a test compound. The pancreas of each animal is then totally enucleated. Its weight is measured and also the cicatrized area is measured relative to the total cross-sectional area of the pancreas tissue sliced by an image analyser.
as §1
In order to evaluate the results of Example 2 histopathologically, each pancreas used for weight measurement in Example 2 was fixed in 10% neutral formalin. It was then divided into a spleen side half and a duodenum side half, and each half was sliced at 3 mm intervals to provide cross-sectional tissue pieces. All of these tissue pieces were subjected to paraffin sectioning by conventional procedures and then to hematoxylin-eosin staining and Masson's trichrome staining to prepare two tissue preparations, which were used for histopathological examination. The total cross-sectional area of the pancreatic tissue piece on each preparation was measured using an image analyser (SPICCAII, manufactured by Olympus Optical Co., Ltd.).
In addition, the surface area of the zone which had undergone degeneration and necrosis and in which the exocrine pancreatic tissue was replaced with connective tissue (the cicatrized area) was measured using an image analyser.
In order to evaluate the results of Example 3 histopathologically, the total cross-sectional area and cicatrized area of each pancreas whose weight was measured in Example 3 was measured by the procedure described in Example 4.

Acute toxicity = format: in vivo, ddY mice (male); settings: oral dose of 300 mg/kg or more
Procedure: Acute toxicity was assayed by conventional procedures. […] At the end of this time, the animals were all alive. When the acute toxicities of Compounds No. 2, 3, 4 and 10 were measured in the same manner, the mice were all alive after an oral dose of 300 mg/kg or more.

[3] = duodenum side, control 5.52 ± 0.86, **p < 0.01 all three
[4] = duodenum side, control 90.3 ± 14.9
[5] = spleen side pancreatic half, control 8.11 ± 0.76, *p < 0.05 pioglitazone, **p < 0.01 Compound A
[6] = spleen side pancreatic half, control 99.3 ± 9.8, **p < 0.01 pioglitazone, *p < 0.05 BRL-49653

Row | Structure (SMILES) | Pancreatic weight [1] [mg] | Cicatrized area in the exocrine pancreatic tissue [2, 3] [mm^2] | Total cross-sectional area of pancreatic tissue piece [2, 4] [mm^2] | Cicatrized area in the exocrine pancreatic tissue [2, 5] [mm^2] | Total cross-sectional area of pancreatic tissue piece [2, 6] [mm^2] | Survival (acute toxicity) (Acute toxicity)
1 | CN(CCOc1ccc(CC2SC(=O)NC2=O)cc1)c1ccccn1 (stereo not shown) [BRL-49653, 5-[4-{2-[N-Methyl-N-(pyridin-2-yl)amino]ethoxy}benzyl]-thiazolidine-2,4-dione] | 976 ± 51 | 1.21 ± 0.40 | 100.9 ± 2.1 | 5.40 ± 1.35 | 147.2 ± 14.2 | –
2 | CC(=NOCCOc1ccc(CC2SC(=O)NC2=O)cc1)c1ccc(-c2ccccn2)cc1 (stereo not shown) [Compound A, 5-(4-{2-[1-(4-2'-pyridylphenyl)ethylideneaminooxy]ethoxy}-benzyl)thiazolidine-2,4-dione] | 853 ± 44 | 1.17 ± 0.15 | 90.3 ± 10.2 | 2.62 ± 0.51 | 100.8 ± 12.5 | –
3 | CCc1ccc(CCOc2ccc(CC3SC(=O)NC3=O)cc2)nc1 (stereo not shown) [Pioglitazone, 5-{4-[2-(5-Ethylpyridin-2-yl)ethoxy]benzyl}thiazolidine-2,4-dione] | 982 ± 52 | 1.12 ± 0.26 | 122.0 ± 9.8 | 4.98 ± 1.03 | 157.8 ± 16.1 | –
4 | Cc1c(C)c2c(c(C)c1O)CCC(COc1ccc(CC3SC(=O)NC3=O)cc1)O2 (stereo not shown) [compound 2] | – | – | – | – | – | all alive
5 | CC1(COc2ccc(CC3SC(=O)NC3=O)cc2)CCc2cc(O)ccc2O1 (stereo not shown) [compound 3] | – | – | – | – | – | all alive
6 | CC1(COc2ccc(CC3SC(=O)NC3=O)cc2)CCc2cc(O)c(C(C)(C)C)cc2O1 (stereo not shown) [compound 4, 5-[4-(6-Hydroxy-2-methyl-7-t-butylchroman-2-ylmethoxy)benzyl]thiazolidine-2,4-dione] | – | – | – | – | – | all alive
7 | CCOC(=O)Oc1c(C)c(C)c2c(c1C)CCC(C)(COc1ccc(CC3SC(=O)NC3=O)cc1)O2 (stereo not shown) [compound 10, 5-[4-(6-Ethoxycarbonyloxy-2,5,7,8-tetramethylchroman-2-ylmethoxy)benzyl]-thiazolidine-2,4-dione] | – | – | – | – | – | all alive
